Columns and labels:
70 kDa RHAMM [1] = experiment: GPI-anchor identification: Triton X-114 phase separation, PI-PLC, surface biotin labeling; format: cell-based, rat; details: co-treatment with PDGF-BB and mannosamine 10 mM for six hours
Description: Differential solubilization and temperature-induced Triton X-114 phase separation was performed as briefly described with 75-100 μg of membrane protein. Cells were grown to confluency and quiesced for 48 hours at which point cells were harvested for membrane protein. Some samples were incubated with PI-PLC for 1 hour at 37° C. before proceeding with Triton X-114 phase separation. PI-PLC was used at 0.375 U/100 μg membrane protein. In separate experiments Mannosamine-HCl was used at 10 mM during 6 hour PDGF-BB treatment. For radiolabel experiments, cells were grown to confluency and quiesced for 48 hours in inositol-free media and then incubated with 4 μCi/mL of ^3H myo-inositol during 6 hour PDGF-BB treatment. For surface biotinylation experiments, media was removed after treatment and replaced with 1 mg/ml biotin in defined media and incubated for 20 minutes at 37° C.

RHAMM:caveolin = experiment: Co-immunoprecipitation of RHAMM and caveolin-1 from SMC lysates; format: cell-based, rat; details: peptide 24 hours prior to and during 6 hour PDGF-BB treatment
Description: For standard experiment, 100 μg of lysate was used. Samples were pre-cleared with 50 μl of Protein G-agarose for 60 minutes at room temperature while rotating then centrifuged at 13000 g for 5 minutes. The supernatant was transferred to a new tube and incubated with 1 μg of antibody overnight at 4° C. while rotating. The samples were then incubated with 20 μl of Protein G-agarose for 1 hour at 4° C. while rotating. Beads were collected by centrifugation (1 minute at high speed) and then washed three times with lysis buffer (50 mM Tris, pH 8.0/140 mM NaCl/[…]/0.4% Deoxycholate/protease inhibitor cocktail (Boehringer Manheim). The beads were resuspended in at least 40 μl of 2× Novex Sample Buffer and western blot was performed as per NUPAGE protocol (Invitrogen). Primary and secondary antibodies were diluted (R36: 5 μg/ml, Caveolin-1: 0.25 μg/ml) and pre-incubated together over-night before use. For biotin labeling experiments, 6 μl of streptavidin-agarose was added to 25 μg of protein and incubated for 3 hours at 4° C. Beads were collected by centrifugation at 13000 g for 1 minute, washed and resuspended in Novex sample buffer as above.
Therefore, peptides were used to interfere with RHAMM:caveolin to establish direct protein-protein interactions. […]

erk = experiment: Immunoblot for total and phosphorylated-erk in PDGF-BB stimulated SMC; format: cell-based, rat; details: peptide pretreatment 24 hours, then 10-minute PDGF-BB
70 kDa RHAMM [2] = experiment: MBCD-mediated release of RHAMM from SMC (caveolar disruption); format: cell-based, rat; details: MBCD 30 minutes, absence of PDGF-BB
Description: Caveolar disruption was performed as described below. Cells were grown to confluency in 150 mm dishes and quiesced for 48 hr. After 6 hr PDGF treatment, media was removed and replaced with 20 mm methyl-beta-cyclodextrin in TKM buffer (50 mM Tris-HCl, pH7.4, 25 mM KCl, 5 mM MgCl, 1 mM EDTA). Cells were incubated for 20-30 minutes at 37° C., and the cell-free supernatant was collected after centrifugation at 2000 g for 10 minutes.
Since the GPI anchor links to a hydrophobic lipid tail that inserts into the exoplasmic leaflet of the cell membrane, a liquid ordered arrangement is necessary to maintain its integrity. […] Methyl-beta-cyclodextrin (MBCD), a cell surface-specific cholesterol-extracting agent, can be used to disrupt lipid rafts and caveolae to release endogenous GPI-anchored proteins (Ilangumaran, Madore, McCabe). […] Proteins in the cholesterol-rich annulus are sensitive whereas those in the sphingolipid core are resistant to release by MBCD. SMC cultures were treated with MBCD for 30 minutes, and the cell free supernatant was collected. The supernatant was run by volume on SDS-PAGE and immunoblotted for RHAMM and urokinase-plasmingen activator receptor (uPAR), a defined GPI-anchored protein previously shown to be present in lipid domains. Without MBCD, RHAMM was not released into the supernatant in detectable amounts, irrespective of PDGF-BB treatment (FIG. 11a, lane 2 vs 4). […]

rat aortic SMC [3] = experiment: SMC migration at leading edge of single scratch wounds (timelapse cinemicrography); format: cell-based
Description: Primary cultures of rat aortic SMC were established as previously described. […]
The medium of confluent SMC cultures was then changed to DMEM defined medium for 48 hours for quiescence. Migration of SMC at the leading edge of single scratch wounds of confluent cultures was determined using timelapse cinemicrography as previously described and summarized below. […] Media HA concentration was determined as described below. […]
SMC plated in DMEM complete medium were allowed to grow to confluence. After overnight quiescence, a single scratch wound was made in the center of the culture plate using a sterile cell scraper and fresh defined medium was added The motility of cells at the leading edge of these wounds was determined using timelapse cinemicrography (Metamorph, Universal Imaging Corporation, West Chester, Pa.) as previously described. Briefly, cells were monitored using a Nikon TE-300 inverted microscope (Nikon Instruments, Inc., Melville, N.Y.) to which a video camera (Hamamatsu CCD, Inc., Hamamatsu City, Japan) was attached. At least 20 cells per high power field were imaged every hour and the mean distance traveled per frame was measured to obtain mean cell velocities.

rat aortic SMC [4] = experiment: SMC proliferation (MTS assay); format: cell-based
Description: In order to determine the effect of PDGF-BB on SMC proliferation, 80% confluent and quiescent cultures of SMC were stimulated for 72 hours with varying doses of PDGF-BB (2-50 ng/ml) and cell number was determined using the MTS assay as described in Methods. A bell-shaped dose response curve was obtained with maximum stimulation of SMC proliferation at 10-25 ng/ml (FIG. 7d, *p<0.01 vs. control).
The effect of HA on SMC proliferation and modulation by PDGF-BB was also examined. SMC that were either maintained in serum-free medium or pre-stimulated with 10 ng/ml PDGF-BB for 24 hours were exposed to HA in serum-free medium at concentrations of 0.1-1000 μg/ml for 48 hours. […] As expected, baseline proliferation was increased in SMC cultures following exposure to 10 ng/ml PDGF-BB for 24 hours (FIG. 7e, *p<0.01 vs. non-stimulated cells). […] In order to determine the contribution of RHAMM to SMC proliferation induced by HA, SMC cultures were treated with R36 throughout the pre-stimulation period with PDGF-BB and subsequently during HA stimulation. Non-immune IgG was used as a negative control and a blocking anti-PDGF-BB antibody was used as a positive inhibitory control. Cell number was determined by MTS assay 48 hours after HA stimulation with and without antibody treatments. As noted before, PDGF-BB pretreatment increased baseline proliferation, FIG. 7e*p<0.01 vs. no PDGF), and HA stimulated a further 25% increase in proliferation, FIG. 7e**p<0.05 vs. PDGF, no HA). […] Anti-PDGF-BB antibody blocked 50% of the PDGF-mediated increase in baseline proliferation, FIG. 7e#p<0.01 anti-PDGF vs. normal IgG).

SMC = details: 0.0 μg/ml of HA; previously demonstrated; cited from earlier work
rat aortic SMC [5] = experiment: HA content of medium of SMC cultures (ELISA like assay); format: cell-based; details: quiescent SMC treated 24 hours, normalized to total protein
Description: The medium of confluent SMC cultures was then changed to DMEM defined medium for 48 hours for quiescence. Migration of SMC at the leading edge of single scratch wounds of confluent cultures was determined using timelapse cinemicrography as previously described and summarized below. To observe the effect of HA on this migratory response to wounding, cultures were stimulated with varying concentrations of HA (0.1-100 μg/ml) and studied for 24 hours. For PDGF-BB stimulated HA synthesis experiments, quiescent SMC were stimulated with varying doses of PDGF-BB (2-100 ng/ml) for 24 hours. Media HA concentration was determined as described below. All experiments described below included 10 replicates and each experiment was repeated at least 3 times.
A modified ELISA assay was utilized for determination of HA concentration.
In order to determine the optimal concentration of PDGF-BB required to simulate HA synthesis in SMC, the HA content of medium from quiescent SMC treated for 24 hours with various concentrations of PDGF-BB was determined using an ELISA like assay for HA. Resulting values were normalized to the total protein content of the cultures. […] We therefore used this concentration of PDGF-BB for all subsequent experiments.

N[C@@H]1C(O)O[C@H](CO)[C@@H](O)[C@@H]1O (stereo partly drawn) [mannosamine]
presence of RHAMM in pellet phase after Triton X-114 fractionation (70 kDa RHAMM [1]): completely inhibited

CAV: caveolin scaffolding domain (aa 82-101) peptide fused to antenapedia sequence (RQIKIWFQNRRMKWKKDGIWKASFTTFTVTKYWFYR)
co-immunoprecipitation of RHAMM and caveolin-1 (RHAMM:caveolin): decreased co-immunoprecipitation
PDGF-BB-induced erk phosphorylation after peptide pretreatment (erk): inhibited

Methyl-beta-cyclodextrin [MBCD]
release of 70 kDa RHAMM into supernatant by MBCD (70 kDa RHAMM [2]): released into supernatant

RM: peptide of RHAMM caveolin-binding motif (KWRLL YEEL YDKTKPFQ) fused to antenapedia sequence RQIKIWFQNRRMKWKK (YDKTKPFQRQIKIWFQNRRMKWKK)
co-immunoprecipitation of RHAMM and caveolin-1 (RHAMM:caveolin): decreased co-immunoprecipitation
PDGF-BB-induced erk phosphorylation after peptide pretreatment (erk): inhibited

hyaluronan [HA]
effect of exogenous HA on SMC migration after single scratch wounding (rat aortic SMC [3]; 0.001 μg/ml HA added to wounded cultures): further stimulation of SMC that continued up to 18 hours
proliferative response of SMC to HA without PDGF-BB pre-stimulation (rat aortic SMC [4]; HA 0.1-1000 μg/ml, 48 hours, serum-free medium): no proliferative response
HA concentration of maximal proliferative response (rat aortic SMC [4]; after pre-stimulation with 10 ng/ml PDGF-BB): 100 µg/mL
further increase in SMC proliferation in response to HA (rat aortic SMC [4]; after pre-stimulation with 10 ng/ml PDGF-BB for 24 hours, HA 48 hours): 25%
random migration of sub-confluent SMC cultures (SMC): increases their random migration

B1: PDGF-BB: Platelet-Derived Growth Factor BB dimer, obtained from R & D Systems (protein, UniProt P01127 82-190, looked up)
Platelet-derived growth …: SLGSLTIAEPAMIAECKTRTEVFEISRRLIDRTNANFLVWPPCVEVQRCSGCCNNRNVQCRPTQVQLRPVQVRKIEIVRKKPIFKKATVTLEDHLACKCETVAAARPVT
modifications: homodimer BB
notes: Platelet-Derived Growth Factor BB dimer, obtained from R & D Systems
increase of mean cell velocity of SMC at leading edge of wounds (rat aortic SMC [3]; PDGF-BB 10 ng/ml vs non-stimulated control): two-fold
PDGF-BB dose of maximal HA synthesis (rat aortic SMC [5]): 10 ng/mL
baseline SMC proliferation (rat aortic SMC [4]; 10 ng/ml PDGF-BB for 24 hours): increased
PDGF-BB dose of maximum stimulation of SMC proliferation (rat aortic SMC [4]; 72 hours, doses 2-50 ng/ml, bell-shaped curve): 10 to 25 ng/mL

Reference: patent US20070179085A1, “MODULATION OF RHAMM-CAVEOLIN/LIPID RAFT INTERACTIONS TO AFFECT DEVELOPMENT, RESPONSES TO TISSUE INJURY, ANGIOGENESIS, TUMORIGENESIS, METASTASIS AND GROWTH FACTOR/CYTOKINE RESPONSES” (priority 2005, published 2007)
